Measurements as given in US10809268B2, “Methods and kits for measuring and quantifying DNA double-stranded breaks using gamma-H2AX and H2AX” (The United States of America, as represented by the …, priority 2015, dated 2020).

Legend:
A375 xenografts = test: γ-H2AX and total H2AX immunoassays on cells from drug-treated A375 xenograft mouse models; conditions: A375 xenografts in vivo; PARPi given simultaneously or four hours before CPT-11
Procedure: Pierce REACTI-BIND plates (96-well) (Thermo Scientific) were coated with anti-7-H2AX antibody (Millipore) diluted to a concentration of 4 μg/mL in 0.1 M pH 9.6 carbonate buffer (Sigma-Aldrich, St. Louis, Mo.), 100 μL/well, for 2 hours at 37° C. The γ-H2AX synthetic peptide standard or a whole-cell extract was added to each well and incubated for antigen capture overnight at 4° C. Plates were incubated with 100 μL/well of 2 μg/mL anti-histone H2AX rabbit polyclonal antibody (Abcam) diluted in 2% bovine serum albumin (BSA)/phosphate buffered saline (PBS) supplemented with 1 μL/mL mouse serum for 2 hours (h) at 24° C. Subsequently, 100 μL/well HRP-conjugated affinity-purified goat anti-rabbit (KPL) was added at a final concentration of 1 μg/mL diluted in 2% BSA/PBS, supplemented with 1 μL/mL mouse serum, and incubated for 1 hour at 24° C. […] M200 plate reader (Tecan Group Ltr., Maennedorf, Switzerland). A standard curve was generated by plotting the RLU (relative light unit) values that were obtained for a range of concentrations of the γ-H2AX standard peptide (FIG. 1A). The average γ-H2AX concentration for each cell extract was then determined using the standard curve (FIG. 1B).
A375 xenograft mouse models were treated with vehicle (control), CPT-11 alone, a PARP inhibitor alone, a combination of CPT-11 and the PARP inhibitor (PARPi) administered simultaneously, or a combination of CPT-11 and the PARPi, wherein the PARPi is administered four hours before CPT-11 is administered. […] Cells from the treated mice were quantified for γ-H2AX and total H2AX using the immunoassays of Examples 1 and 2, respectively, and the ratio of γ-H2AX to total H2AX was determined.

[1] = test system: tumors of the human breast carcinoma cell line MX1; test: γ-H2AX and total H2AX immunoassays on tumor biopsies of drug-treated nude mice with MX1 tumors; type: in vivo
Procedure: Pierce REACTI-BIND plates (96-well) (Thermo Scientific) were coated with anti-7-H2AX antibody (Millipore) diluted to a concentration of 4 μg/mL in 0.1 M pH 9.6 carbonate buffer (Sigma-Aldrich, St. Louis, Mo.), 100 μL/well, for 2 hours at 37° C. The γ-H2AX synthetic peptide standard or a whole-cell extract was added to each well and incubated for antigen capture overnight at 4° C. Plates were incubated with 100 μL/well of 2 μg/mL anti-histone H2AX rabbit polyclonal antibody (Abcam) diluted in 2% bovine serum albumin (BSA)/phosphate buffered saline (PBS) supplemented with 1 μL/mL mouse serum for 2 hours (h) at 24° C. […] Finally, 100 μL/well of freshly prepared SUPERSIGNAL ELISA Pico chemiluminescent substrate (Thermo Scientific, Waltham, Mass.) was added to the plate and immediately read on a TECAN INFINITE M200 plate reader (Tecan Group Ltr., Maennedorf, Switzerland). […] The average γ-H2AX concentration for each cell extract was then determined using the standard curve (FIG. 1B).
Pierce REACTI-BIND plates (96-well) were coated with total anti-H2A core protein HIST1H2AC monoclonal antibody (Novus, St. Charles, Mo.) diluted to a concentration of 4 μg/mL in 0.1 M pH 9.6 carbonate buffer (Sigma-Aldrich), 100 μL/well, for 2 hours at 37° C. […] The average total H2AX concentration for each cell extract was then determined using the standard curve (FIG. 2B). […]

MCF7 cells = test: γ-H2AX and total H2AX immunoassays in MCF7 cells treated with SN38 and ATR inhibitors; type: cell-based, human; conditions: SN38 0.25 μM plus ATRi 1 or 0.5 μM
[2] = test system: γ-H2AX in HT29 or MCF7 cells; test: Microscope staining with labeled anti-γ-H2AX antibody (IFA) of cells treated as in Example 14; type: cell-based, human; conditions: 10 nM, 100 nM, 1 μM and 10 μM CPT; intensity increased with concentration
Source text: The presence of γ-H2AX in the cells treated as described in Example 14 was confirmed by staining using a labeled anti-γ-H2AX antibody and observing the intensity of the staining through a microscope. […] The staining intensity increased as the concentration of CPT used to treat the cells increased.
The γ-H2AX in the cells treated as described in Example 14 was quantified by staining using a labeled anti-γ-H2AX antibody and measuring the intensity of the staining observed through a microscope (immunofluorescence microscope assay (IFA)). The quantity of γ-H2AX measured by staining intensity was compared to the ratio of γ-H2AX to total H2AX measured by the immunoassays (IA) of Examples 1 and 2. The results are shown in FIG. 18A (HT29) and FIG. 18B (MCF7).

HT29 cells = test: Ratio of γ-H2AX to total H2AX in HT29 cells treated 1 hour in vitro; type: cell-based, human
Procedure: Pierce REACTI-BIND plates (96-well) (Thermo Scientific) were coated with anti-7-H2AX antibody (Millipore) diluted to a concentration of 4 μg/mL in 0.1 M pH 9.6 carbonate buffer (Sigma-Aldrich, St. Louis, Mo.), 100 μL/well, for 2 hours at 37° C. The γ-H2AX synthetic peptide standard or a whole-cell extract was added to each well and incubated for antigen capture overnight at 4° C. Plates were incubated with 100 μL/well of 2 μg/mL anti-histone H2AX rabbit polyclonal antibody (Abcam) diluted in 2% bovine serum albumin (BSA)/phosphate buffered saline (PBS) supplemented with 1 μL/mL mouse serum for 2 hours (h) at 24° C. Subsequently, 100 μL/well HRP-conjugated affinity-purified goat anti-rabbit (KPL) was added at a final concentration of 1 μg/mL diluted in 2% BSA/PBS, supplemented with 1 μL/mL mouse serum, and incubated for 1 hour at 24° C. Finally, 100 μL/well of freshly prepared SUPERSIGNAL ELISA Pico chemiluminescent substrate (Thermo Scientific, Waltham, Mass.) was added to the plate and immediately read on a TECAN INFINITE M200 plate reader (Tecan Group Ltr., Maennedorf, Switzerland). […] The average γ-H2AX concentration for each cell extract was then determined using the standard curve (FIG. 1B).
Pierce REACTI-BIND plates (96-well) were coated with total anti-H2A core protein HIST1H2AC monoclonal antibody (Novus, St. Charles, Mo.) diluted to a concentration of 4 μg/mL in 0.1 M pH 9.6 carbonate buffer (Sigma-Aldrich), 100 μL/well, for 2 hours at 37° C. […] Finally, 100 μL/well of freshly prepared SUPERSIGNAL ELISA Pico chemiluminescent substrate (Thermo Scientific) was added to the plate and immediately read on a TECAN INFINITE M200 plate reader. […] The average total H2AX concentration for each cell extract was then determined using the standard curve (FIG. 2B).
HT29 cells were treated with the genotoxic agent camptothecin (CPT) or the non-genotoxic agent rhomidepsin for 1 hour at a concentration of 0 (vehicle) 0.001, 0.001, 0.01, 1 or 10 μM. […] DNA DSB, as measured by the ratio of γ-H2AX to total H2AX, was detected with CPT treatment as low as 1 nM. […]

γ-H2AX in HCT116 cells [3] = test: γ-H2AX detection by Western blot in treated HCT116 cell cultures; type: cell-based, human
Procedure: (§1) Human […] cancer cell lines HCT 116 or MCF 7 (ATCC) were cultured with 10% fetal bovine serum at 37° C. in a 5% CO2 incubator. The cells were treated with the topoisomerase I inhibitor topotecan, the apoptosis-inducing biomolecule tumor necrosis factor (TNF)-related apoptosis-inducing ligand (TRAIL), or IR. The γ-H2AX immunoassay (γ-H2AX ELISA) was compared with γ-H2AX detection by both Western blot and immunofluorescence assay (IFA).
(§2) The ELISA detected changes in γ-H2AX in HCT116 cell cultures induced by a variety of treatments in vitro and was overall highly correlated to both IFA and Western blot following treatment with topotecan or TRAIL (Table 6).

γ-H2AX in HCT116 cells [4] = test: γ-H2AX detection by immunofluorescence assay (IFA) in treated HCT116 cell cultures; type: cell-based, human
Procedure: as §1, §2

γ-H2AX in HCT116 cells [5] = test: γ-H2AX immunoassay (γ-H2AX ELISA) in treated HCT116 cell cultures; type: cell-based, human
Procedure: Pierce REACTI-BIND plates (96-well) (Thermo Scientific) were coated with anti-7-H2AX antibody (Millipore) diluted to a concentration of 4 μg/mL in 0.1 M pH 9.6 carbonate buffer (Sigma-Aldrich, St. Louis, Mo.), 100 μL/well, for 2 hours at 37° C. The γ-H2AX synthetic peptide standard or a whole-cell extract was added to each well and incubated for antigen capture overnight at 4° C. Plates were incubated with 100 μL/well of 2 μg/mL anti-histone H2AX rabbit polyclonal antibody (Abcam) diluted in 2% bovine serum albumin (BSA)/phosphate buffered saline (PBS) supplemented with 1 μL/mL mouse serum for 2 hours (h) at 24° C. Subsequently, 100 μL/well HRP-conjugated affinity-purified goat anti-rabbit (KPL) was added at a final concentration of 1 μg/mL diluted in 2% BSA/PBS, supplemented with 1 μL/mL mouse serum, and incubated for 1 hour at 24° C. Finally, 100 μL/well of freshly prepared SUPERSIGNAL ELISA Pico chemiluminescent substrate (Thermo Scientific, Waltham, Mass.) was added to the plate and immediately read on a TECAN INFINITE M200 plate reader (Tecan Group Ltr., Maennedorf, Switzerland). A standard curve was generated by plotting the RLU (relative light unit) values that were obtained for a range of concentrations of the γ-H2AX standard peptide (FIG. 1A). The average γ-H2AX concentration for each cell extract was then determined using the standard curve (FIG. 1B).
as §1, §2

Molecule: C[C@]1(c2nc3c(C(N)=O)cccc3[nH]2)CCCN1 [ABT-888]
- induction of γ-H2AX (DNA DSB) in combination with CPT-11 (A375 xenografts): synergistic induction of γ-H2AX

Molecule: O=C(c1cc(Cc2n[nH]c(=O)c3ccccc23)ccc1F)N1CCN(C(=O)C2CC2)CC1 [AZD2281]
- γ-H2AX induction (ratio of γH2AX to total H2AX) ([1]; 50 or 6.25 units AZD2281 IP in combination with irinotecan 7.5 units IV, particularly at 4 hours after administration): induced substantially more γ-H2AX
- induction of γ-H2AX (DNA DSB) in combination with CPT-11 (A375 xenografts): synergistic induction of γ-H2AX

Molecule: C[C@@H]1COCCN1c1cc(C2([S@](C)(=N)=O)CC2)nc(-c2cc[nH]c3nccc2-3)n1 [AZD-6738]
- synergy for γ-H2AX induction in combination with the Top1 inhibitor SN38 (MCF7 cells): highest synergy

Molecule: CC[C@@]1(O)C(=O)OCc2c1cc1n(c2=O)Cc2cc3ccccc3nc2-1 [CPT, camptothecin]
- staining with labeled anti-γ-H2AX antibody [2]: Staining was observed
- concentration at which DNA DSB, as measured by the ratio of γ-H2AX to total H2AX, was detected (HT29 cells; 1 hour treatment): ≥ 1 nM
- concentration giving a detectable signal of DNA DSB (ratio of γ-H2AX to total H2AX) (HT29 cells; 1 hour, with as few as 160 cells per assay): ≥ 0.01 µM

Molecule: NC(=O)c1cccc2cn(-c3ccc([C@@H]4CCCNC4)cc3)nc12 [MK-4827]
- induction of γ-H2AX (DNA DSB) in combination with CPT-11 (A375 xenografts): synergistic induction of γ-H2AX

Molecule: Nc1nc(N)c(N=O)c(OCC2CCCCC2)n1 [NU-6027]
- synergy for γ-H2AX induction in combination with the Top1 inhibitor SN38 (MCF7 cells): none

Molecule: CC[C@@]1(O)C(=O)OCc2c1cc1n(c2=O)Cc2cc3c(CN(C)C)c(O)ccc3nc2-1 [Topotecan, topotecan]
- γ-H2AX Western Blot (γ-H2AX in HCT116 cells [3]; Topotecan 1 μM, 0 hr): 4.7 RLU
- γ-H2AX Western Blot (γ-H2AX in HCT116 cells [3]; Topotecan 1 μM, 1 hr): 8.1 RLU
- γ-H2AX Western Blot (γ-H2AX in HCT116 cells [3]; Topotecan 1 μM, 3 hr): 6.9 RLU
- γ-H2AX Western Blot (γ-H2AX in HCT116 cells [3]; Topotecan 1 μM, 6 hr): 14.3 RLU
- γ-H2AX IFA (γ-H2AX in HCT116 cells [4]; Topotecan 1 μM, 0 hr): 0.7 RLU
- γ-H2AX IFA (γ-H2AX in HCT116 cells [4]; Topotecan 1 μM, 1 hr): 23.0 RLU
- γ-H2AX IFA (γ-H2AX in HCT116 cells [4]; Topotecan 1 μM, 3 hr): 43.9 RLU
- γ-H2AX IFA (γ-H2AX in HCT116 cells [4]; Topotecan 1 μM, 6 hr): 51.2 RLU
- γ-H2AX ELISA (γ-H2AX in HCT116 cells [5]; Topotecan 1 μM, 0 hr): 124 pM
- γ-H2AX ELISA (γ-H2AX in HCT116 cells [5]; Topotecan 1 μM, 1 hr): 2536 pM
- γ-H2AX ELISA (γ-H2AX in HCT116 cells [5]; Topotecan 1 μM, 3 hr): 3134 pM
- γ-H2AX ELISA (γ-H2AX in HCT116 cells [5]; Topotecan 1 μM, 6 hr): 4793 pM

Molecule: CNCc1ccc(-c2cc(-c3nc(-c4ccc(S(=O)(=O)C(C)C)cc4)cnc3N)on2)cc1 [VE-822]
- synergy for γ-H2AX induction in combination with the Top1 inhibitor SN38 (MCF7 cells): highest synergy

Molecule: CCc1c2c(nc3ccc(OC(=O)N4CCC(N5CCCCC5)CC4)cc13)-c1cc3c(c(=O)n1C2)COC(=O)[C@]3(O)CC [irinotecan]
- γ-H2AX induction (ratio of γH2AX to total H2AX) ([1]; irinotecan 7.5 units IV alone, MX1 tumor biopsies, nude mice): induced γ-H2AX modestly

Molecule: C/C=C1\NC(=O)[C@H]2CSSCC/C=C/[C@H](CC(=O)N[C@H](C(C)C)C(=O)N2)OC(=O)[C@H](C(C)C)NC1=O [rhomidepsin]
- DNA DSB, as measured by the ratio of γ-H2AX to total H2AX (HT29 cells; 1 hour, even at a concentration as high as 10 μM): no DNA DSB

B1: TRAIL: apoptosis-inducing biomolecule tumor necrosis factor (TNF)-related apoptosis-inducing ligand (protein, UniProt P50591 1-281, looked up)
Tumor necrosis factor ligand …: MAMMEVQGGPSLGQTCVLIVIFTVLLQSLCVAVTYVYFTNELKQMQDKYSKSGIACFLKEDDSYWDPNDEESMNSPCWQVKWQLRQLVRKMILRTSEETISTVQEKQQNISPLVRERGPQRVAAHITGTRGRSNTLSSPNSKNEKALGRKINSWESSRSGHSFLSNLHLRNGELVIHEKGFYYIYSQTYFRFQEEIKENTKNDKQMVQYIYKYTSYPDPILLMKSARNSCWSKDAEYGLYSIYQGGIFELKENDRIFVSVTNEHLIDMDHEASFFGAFLVG
- γ-H2AX Western Blot (γ-H2AX in HCT116 cells [3]; TRAIL 0.1 μg/mL, 0 hr): 2.7 RLU
- γ-H2AX Western Blot (γ-H2AX in HCT116 cells [3]; TRAIL 0.1 μg/mL, 1 hr): 17.3 RLU
- γ-H2AX Western Blot (γ-H2AX in HCT116 cells [3]; TRAIL 0.1 μg/mL, 3 hr): 45.8 RLU
- γ-H2AX Western Blot (γ-H2AX in HCT116 cells [3]; TRAIL 0.1 μg/mL, 6 hr): 43.5 RLU
- γ-H2AX IFA (γ-H2AX in HCT116 cells [4]; TRAIL 0.1 μg/mL, 0 hr): 2.0 RLU
- γ-H2AX IFA (γ-H2AX in HCT116 cells [4]; TRAIL 0.1 μg/mL, 1 hr): 34.5 RLU
- γ-H2AX IFA (γ-H2AX in HCT116 cells [4]; TRAIL 0.1 μg/mL, 3 hr): 72.2 RLU
- γ-H2AX IFA (γ-H2AX in HCT116 cells [4]; TRAIL 0.1 μg/mL, 6 hr): 49.6 RLU
- γ-H2AX ELISA (γ-H2AX in HCT116 cells [5]; TRAIL 0.1 μg/mL, 0 hr): 134 pM
- γ-H2AX ELISA (γ-H2AX in HCT116 cells [5]; TRAIL 0.1 μg/mL, 1 hr): 2764 pM
- γ-H2AX ELISA (γ-H2AX in HCT116 cells [5]; TRAIL 0.1 μg/mL, 3 hr): 9276 pM
- γ-H2AX ELISA (γ-H2AX in HCT116 cells [5]; TRAIL 0.1 μg/mL, 6 hr): 7703 pM
